Patent US20070004634A1 (Novo Nordisk A/S, priority 1998, published 2007)
No end group written: not given here.

Key:
[1] = target: IR (Homo sapiens, UniProt P06213); experiment: Phage ELISA, binding of phage clones to IR (ratio over background); conditions: ratio of IR divided by ratio of IGF-1R
Experimental: (§1) HIT indicates binder; CAND indicates binder candidate; LDH indicates binding to lactate dehydrogenase (negative control); Sp/Irr indicates the ratio of specific binding over non-specific binding.
(§2) Sp/Irr=the ratio of specific binding over non-specific binding; LDH=lactate dehydrogenase (negative control).
(§3) For phage pools, cells from frozen stocks were grown and phage were prepared as described above. For analysis of individual clones, colonies were picked and phage prepared as described above. Subsequent steps were the same for pooled and clonal phage. Microtiter wells were coated and blocked as described above. […] Phage resuspended in MPBS (PBS containing 2% non-fat milk) were added to wells (100 μl/well) and incubated at room temperature for 1 h. The phage solution was then removed, and the wells were washed three times with PBS at room temperature.
(§4) Anti-M13 antibody conjugated to horseradish peroxidase (Pharmacia Biotech) was diluted 1:3000 in MPBS and added to each well (100 μl/well). Incubation was for another hour at room temperature, followed by PBS washes as described. Color was developed by addition of ABTS solution (100 μl/well; Boehringer). […] Data points were averaged after subtraction of appropriate blanks. A clone was considered “positive” if the A405 of the well was ≧2-fold over background.

[2] = target: IGF-1R (Homo sapiens, UniProt P08069); experiment: Phage ELISA, binding of phage clones to IGF-1R (ratio over background); conditions: ratio of IGF-1R divided by ratio of IR
Experimental: as §1, §2, §3, §4

Row | Substance | Comparisons IR/IGF-1R [1] | Comparisons IGF-1R/IR [2]
1 | AGSVTSFYDAMEQLVATGTSA [20E2A-3-A4-IGFR] | 0.7 | 1.4
2 | AQPCGGFYGLLEQLVGRSVCD [20E2B-4-F10-IGFR] | 0.1 | 7.8
3 | ASSASGFYELLQRLAGLGLEV [20E2B-3-C4-IGFR] |  | 6.2
4 | CMM.DGFYAGLGCLLTAGEGR (CMMXDGFYAGLGCLLTAGEGR; not fully specified; printed as CMM.DGFYAGLGCLLTAGEGR; X: residue not identified in the source; cysteine pairing not given here) [20E2B-3-C11-IGFR] | 0.1 | 7.5
5 | DRDFCRFYERLTALVGGQVDGGWPC [20C-3-F6-IGFR] | 0.1 | 14.1
6 | DSVGDNFYQLLESLVGGHGVG [20E2B-3-D6-IGFR] | 0.1 | 6.9
7 | FFYDCLAALLQGVARYHDLCAVEIT [20C-4-C7-IGFR] | <0.1 | 21.8
8 | FFYRCLSRLLGGQLGSRLGLSCIGD [20C-3-E4-IGFR] | 0.2 | 6.0
9 | GCVVEWQKWHGASDPFYHKLSELGGCS [B6Hα-3-F10-IR] | 0.2 | 4.6
10 | GGTEVDFYRALERLVRGQLGL [20E2B-3-D8-IGFR] | 0.1 | 11.3
11 | GHYFGSFYDAIDQLVAGMLPG [20E2A-3-A3-IGFR] | 0.5 | 1.9
12 | GLDHSDAVGVHLGFAWPAQARGRWEAGGLEDTWAGYDWL [40F-4-B1-IGFR] | 0.1 | 13.1
13 | GNGDGMFYQLLSLLVGRDMHV [20E2B-3-C2-IGFR] | 0.1 | 13.8
14 | GVRAMSFYDALVSVLGLGPSG [20E2B-1-A6-IGFR] | 0.1 | 16.8
15 | ICTGQGFYQVLCGLLRGTSAR [20E2B-2-B3-IGFR] | 0.1 | 7.4
16 | IQQELTFYDLLHRLVRSELGS [20E2B-3-D2-IGFR] | 0.1 | 11.7
17 | KLHNLMFYYGLQRLVWGAGLG [20E2B-4-H3-IGFR] | 0.1 | 13.9
18 | LGVTDGFYAALGYLIHGVGQF [20E2B-3-D11-IGFR] | 0.1 | 7.6
19 | LRIANLFYQRLWDLAFGGGG [20E2B-3-E8-IFGR] | 0.1 | 11.1
20 | LSCLAYSRHGIWRPSTDLGLGRSVGEGSVSTRWRGYDWFE [40F-4-D1-IGFR] | 0.1 | 13.1
21 | LSSDGQFYRALNLLLQGSAGR [20E2B-2-B7-IGFR] | 0.1 | 6.7
22 | LSVALSFYDALGQLVAGEGRW [20E2A-3-A12-IGFR] | 0.3 | 3.9

The next lines start with the values.

Row | Comparisons IR/IGF-1R [1] | Comparisons IGF-1R/IR [2] | Substance
23 | 0.7 | 1.4 | AETSAQVGWQRLWSVWPGDHWSTLDPFYHKLSELLRESGA [Peptide B6L-3-G5-IR]
24 | 0.3 | 3.4 | AETSVQVGWIRLQSVWPGEHWNTVDPFYHKLSELLRGSGA [Peptide B6L-4-D7-IR]
25 | 0.6 | 1.8 | AGTPAQVG*NRLWSVWPGEHWNTVDPFYNKLSELLRESGA (AGTPAQVGXNRLWSVWPGEHWNTVDPFYNKLSELLRESGA; not fully specified; X: residue not identified in the source; ends and bridges not checked) [Peptide B6L-4-A7-IR]
26 | 0.3 | 3.0 | AICDAGFHEHFYDWFALQVSDCGRQS [H2CA-2-B11-IGFR]
27 | 0.2 | 5.1 | APDPSDFQEIFYDWFVRQVSRMPGGG [H2CA-1-A3-IGFR]
28 | 0.2 | 6.4 | AVRATRFDEAFYDWFVRQISDGQGNK [H2CA-4-F6-IGFR]
29 | 0.0 | 20.5 | CCTTEMVVMDARDDPFYHKLSELVTGG [Peptide B6Hα-1-B5-IR]
30 | 0.5 | 1.9 | CGAKMTGTPNDPFYHKLSELLQRG [Peptide B6Hα-3-E6-IR]
31 | 0.5 | 1.8 | CSMAAVAEAGDDDDPFYHKLSELCQGS [Peptide B6Hα-3-F1-IR]
32 | 0.1 | 10.3 | DRAFYNGLRDLVGAVYGAWD [R20α-4-20C11-IR]
33 | 0.4 | 2.8 | EAASLGSQDRNFYDWFVRQVV [Peptide A6S-2-D11-IR]
34 | 0.1 | 7.1 | EGSGFYGYFFSLLGLQG [NNRPγ-4-A9-IR]
35 | 0.5 | 2.1 | FRTLAAQHDSFYDWFDRQVSGAAGER [H2CA-3-C11-IGFR]
36 | 0.1 | 12.9 | FYDAIDQLVRGSARAGGTRD [R20α-3-20E2-IR]
37 | 0.3 | 3.8 | FYVQQWGHENFYDWFDRQVSQSGGAG [H2CA-4-F1-IGFR]
38 | 0.3 | 3.5 | GAPVDQLHEDFYDWFVRQVSQAATG [H2CA-2-B2-IGFR]
39 | 0.2 | 4.3 | GCAVVEEAERSRGDPFYHKLSELIQGC [Peptide B6Hα-3-E7-IR]
40 | 0.2 | 4.2 | GCEVIVEEGDSADPFYHKLSELCQGS [Peptide B6Hα-2-D1-IR]
41 | 0.3 | 2.9 | GCITAENGAGDPFYHKLSELGGCS [Peptide B6Hα-1-B3-IR]
42 | 0.2 | 4.1 | GFREGNFYEWFQAQVT [Peptide E4Dα-4-H2-IR]
43 | 0.3 | 3.4 | GFREGSFYDWFQAQVT [E4Dα-2-D11-IR]
44 | 0.3 | 3.6 | GGTKAVAKVGTRDDPFYHKLSELLQGS [Peptide B6Hα-4-G8-IR]
45 | 0.1 | 16.0 | GIISQSCPESFYDWFAGQVSDPWWCW [H2CA-4-G9-IGFR]
46 | 0.2 | 4.4 | GRTMAVMAAGGPDDPFYHKLSELVQGG [Peptide B6Hα-2-D6-IR]
47 | 0.5 | 2.2 | HLADGQFHEKFYDWFERQISSRCNDC [H2CA-3-E11-IGFR]
48 | 0.2 | 6.0 | IIGGFYSYFNSVLRLGT [NNRPγ-4-A1-IR]
49 | 0.3 | 2.9 | LGYQEPFQQNFYDWFVRQVSGAENAG [H2CA-3-E8-IGFR]
50 | 0.1 | 15.5 | LKDGFYDYFWQRLHLGS [NNRPγ-4-B11-IR]
51 | 0.3 | 3.7 | LRRQAPVEENFYDWFVRQVSGDRVGG [H2CA-3-D7-IGFR]
52 |  | 14.6 | RGCNDDGGKGWSDDPFYHKLSELICGG [Peptide B6Hα-1-A2-IR]
